Assays:
[1] = target: T1, E. coli lipoic acid ligase (LplA) (Escherichia coli, UniProt P32099); settings: azide 7 ligation; cited from earlier work
[2] = target: T1, E. coli lipoic acid ligase (LplA); test: HPLC kinetics of LplA-catalyzed lipoylation; type: biochemical
[3] = test system: LplA; settings: cited from earlier work
[4] = test system: LplA; settings: 1:10, 1:100, 1:1000 mixtures of E2p:LAP1; 300 nM LplA, 30 minutes; PCR analysis
[5] = test system: LplA; settings: LAP2 fused to the C- rather than N-terminus of HP1; 50 nM LplA, 1 hour, 30 °C; HPLC
[6] = test system: HeLa mammalian cells; test: Surface expression of LAP-CFP-TM fusions in mammalian cells; settings: CFP fluorescence
[7] = test system: biotin ligase (BirA); settings: 12 hour reaction with 5 μM BirA; HPLC; data not shown
[8] = test system: LplA

T1 sequence (P32099 whole entry): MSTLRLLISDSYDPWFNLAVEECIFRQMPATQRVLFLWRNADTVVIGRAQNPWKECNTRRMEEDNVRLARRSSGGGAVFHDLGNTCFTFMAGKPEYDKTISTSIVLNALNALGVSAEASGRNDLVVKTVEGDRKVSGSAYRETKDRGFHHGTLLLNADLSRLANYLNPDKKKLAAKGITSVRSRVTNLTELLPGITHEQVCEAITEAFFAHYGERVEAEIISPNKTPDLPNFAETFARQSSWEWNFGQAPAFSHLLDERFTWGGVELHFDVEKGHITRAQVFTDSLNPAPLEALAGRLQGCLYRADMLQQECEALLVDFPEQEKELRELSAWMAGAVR

Sequence	kcat [1] [s⁻¹]	Km ([2]; read-out: Km (estimated), LAP1, estimated, measured by HPLC, data not shown) [µM]	ligation of lipoic acid, alkyl azide, aryl azide ([3]; LAP1 fusion proteins)	labeling at the cell surface ([3]; LAP1 fusions)	ligation of bromoalkanoic acid and coumarin ([3]; LAP1 fusions)	yeast remaining after one round of selection [4]	conversion to lipoylated product, C-terminal HP1 fusion [5]	cell surface expression [6]	biotinylation by BirA [7]	kcat/Km fold worse than natural lipoate and biotin acceptor proteins ([2]; LAP2 versus natural acceptor proteins) [fold]	kcat/Km fold better than LAP1 ([2]; LAP2 versus previous rationally-designed 22-amino acid LAP1) [fold]	kcat/Km ([2]; lipoylation of synthetic LAP2 peptide, 50 nM LplA, 750 μM lipoic acid, 2 mM ATP, 5 mM magnesium acetate in DPBS, 30 °C, LAP2 5.5-352 μM, HPLC, Michaelis-Menten) [M⁻¹ s⁻¹]	recognition by LplA by position in fusion ([3]; LAP2)	labeling in the cytosol / inside living cells [3]	cell surface lipoylation compared with E2p ([8]; CFP-TM fusions in HEK cells, average signal ratios, Figure S5B)	cell surface lipoylation of fusion proteins ([8]; even at low expression levels)
DEVLVEIETDKAVLEVPGGEEE [LAP1]	0.048 ± 0.001	> 200	in vitro and in cell lysate, but not on the cell surface except under conditions of high LAP1-POI over-expression	difficult to label at the cell surface	could not be ligated to LAP1 fusions in any context	could not be detected	–	–	–	–	–	–	–	–	–	–
GFEIDKVWYDLDA [LAP2]	–	–	–	–	–	–	decreased somewhat, but was still higher than all other LAP sequences at the N-terminus	clear cell surface expression	no biotinylation	8	> 70	16500	can be recognized by LplA at the N-terminus, C-terminus, and internally	allows fluorophore tagging of intracellular proteins	comparable even to E2p	could easily lipoylate cell surface LAP2 fusion proteins, even at low expression levels

Reference: PMC2799336 (Journal of the American Chemical Society, 2009)
